In patent US20260265304A1, “PEPTIDE INHIBITORS OF FOCAL ADHESION KINASE ACTIVITY AND USES THEREOF” (Arizona Board of Regents on Behalf of the University of …, priority 2019, published 2026):
Several values for one entry are separate records, joined by “and”; a condition that tells them apart may be missing. Equal values may be shown once. Read-outs that look alike come from different tables or passages of the source. Positions of bridges follow the written chain, without caps; N, C: chain ends. Non-standard residues stand in square brackets, D forms with d. Residues, ends and D or L forms follow the SMILES beside them. R8 = C=CCCCCCC[C@@](C)(N)C(=O)O; R5 = C=CCCC[C@@](C)(N)C(=O)O; S5 = C=CCCC[C@](C)(N)C(=O)O

What was measured:
[1] = biological target: T1, FAK FAT domain (paxillin-FAT binding) (Homo sapiens, UniProt Q05397); assay: Competition fluorescence polarization (FP) assay, inhibition of TAMRA-LD2 binding to FAT
T1 construct: FP Buffer containing 20 μM FAT and 0.1 μM TAMRA-LD2
T1 sequence (Q05397 914-1045 limits assumed): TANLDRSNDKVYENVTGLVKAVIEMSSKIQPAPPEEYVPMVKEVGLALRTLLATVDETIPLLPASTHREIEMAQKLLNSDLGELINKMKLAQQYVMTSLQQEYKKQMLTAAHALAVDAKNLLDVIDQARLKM
Method: The FP assay buffer used was 20 mM Tris, 200 mM NaCl, 0.05% β-me, 0.1% Triton X-100, 5% glycerol, and 1× Halt protease inhibitor cocktail. […] Bodipy TMR FP optical module (2100-4100) was used as the mirror.
Wells with no FAT were used as a baseline value which was subtracted from the raw values to produce ΔmP values. The plate was read at every hour for four hours to test for time differences in IC50. The titration data was processed through GraphPad Prism to produce a dose response curve and a calculated IC50 with standard error (SE). A four-parameter dose-response inhibition model was utilized and the bottom fit was constrained to the lower plateau of the curve. Ki was determined from the following calculation:
P0 is the concentration of free protein and KD is calculated from the saturation curve. 150 is calculated by the following equation:
where PT is the total protein concentration, LT is the total labeled-ligand concentration, P0 is the positive root of P0^2+(KD+LT)*P0−PT, PL0=P−P0, PL50=PL0/2, L0=LT-PL0, and L50=LT-PL50.

[2] = biological target: T2, FAK FAT domain (biotinylated Avitag-FAT protein) (Homo sapiens, UniProt Q05397); assay: Surface plasmon resonance (SPR) binding to immobilised FAT protein; conditions: for Kd: FAT protein immobilised, peptide 200 μM-0.01 μM, 1:1 binding model; for binding and inhibitory properties (SPR/FP) in words, compared to 1907: SAR discussion of SPR and FP data
T2 construct: biotinylated Avitag-FAT protein was diluted in running buffer
T2 sequence (Q05397 914-1045 limits assumed): T1 sequence (Q05397 914-1045 limits assumed)
Method: SPR binding studies were performed on a ForteBio Pioneer FE SPR system. In brief, a SADH Streptavidin in Dextran Hydrogel biosensor (ForteBio) was docked onto the flow cell and preconditioned with two injections of 10 mM NaOH, 1 M NaCl for 1 min at 50 μL/min. […] Empty channel 2 served as the reference control. After achieving a stable baseline, a concentration series (200 μM-0.01 μM) of peptide was prepared in final running buffer (100 mM Tris-HCl, 200 mM NaCl, 0.05% Tween-20, 5% DMSO) and injected using the OneStep gradient injection method at a flow rate of 75 μL/min. […] Raw SPR data were appropriately processed in Qdat software (ForteBio) by normalizing the baseline prior to injection, aligning the channels, subtraction of the reference channel, and blank subtraction. Kinetic data were fitted to a pseudo-first order 1:1 interaction binding model using to calculate KD. In addition, a steady-state model and Req data points were used to validate the binding affinity. Visual inspection of the SPR sensograms was performed to verify appropriate model fitting, lack of mass transport effects, return to baseline, and lack of irregular kinetics.

SMILES | Kd ([2]; read-out: SPR KD) | Ki ([1]; read-out: FP Ki) | binding and inhibitory properties (SPR/FP) in words, compared to 1907 [2] | Ki [1] | Kd ([2]; SPR KD)
CC(=O)N[C@@H](CO)C(=O)N[C@@H](CC(C)C)C(=O)NCC(=O)N[C@@H](CO)C(=O)N[C@@H](CC(N)=O)C(=O)N[C@@H](CC(C)C)C(=O)N[C@]1(C)CCCCCCC=CCCC[C@@](C)(C(=O)N[C@@H](CCC(=O)O)C(=O)N[C@@H](CC(C)C)C(=O)N[C@@H](CC(N)=O)C(=O)N[C@@H](C)C(=O)N[C@H](C(=O)N[C@@H](CCC(N)=O)C(=O)N[C@@H](Cc2c[nH]cn2)C(N)=O)C(C)C)NC(=O)[C@H](CC(C)C)NC(=O)[C@H](CC(C)C)NC(=O)[C@H](CCCNC(=N)N)NC(=O)[C@H](CC(=O)O)NC(=O)[C@H](CC(C)C)NC(=O)[C@H](CCC(=O)O)NC1=O [Peptide 1920, Ac-SLGSNLR8ELDRLLS5ELNAVQH-NH2] (Ac-SLGSNL[R8]ELDRLL[S5]ELNAVQH-NH2; staple 7-14) | 7 µM and 6.95 µM | 25 µM |  |  | 
CC(=O)N[C@@H](CC(=O)O)C(=O)N[C@@H](CC(C)C)C(=O)N[C@]1(C)CCCCCCC=CCCC[C@@](C)(C(=O)N[C@@H](CCC(=O)O)C(=O)N[C@@H](CC(C)C)C(=O)N[C@@H](CC(=O)O)C(N)=O)NC(=O)[C@H](CC(C)C)NC(=O)[C@H](CC(C)C)NC(=O)[C@H](CCCNC(=N)N)NC(=O)[C@H](CC(=O)O)NC(=O)[C@H](CC(C)C)NC(=O)[C@H](CCC(=O)O)NC1=O [Peptide 1913, Ac-DLR8ELDRLLS5ELD-NH2] (Ac-DL[R8]ELDRLL[S5]ELD-NH2; staple 3-10) | 13.7 µM | 21.8 µM |  |  | 
CC(=O)N[C@@H](CC(N)=O)C(=O)N[C@@H](CC(C)C)C(=O)N[C@@H](CCCNC(=N)N)C(=O)N[C@@H](CCC(=O)O)C(=O)N[C@@]1(C)CCCC=CCCC[C@@](C)(C(=O)N[C@@H](CCCNC(=N)N)C(=O)N[C@@H](CCC(=O)O)C(=O)N[C@@H](CC(C)C)C(=O)N[C@@H](CC(N)=O)C(N)=O)NC(=O)[C@H](CC(C)C)NC(=O)[C@H](CCCNC(=N)N)NC(=O)[C@H](CC(=O)O)NC1=O [Peptide 1931, Ac-NLRES5DRLS5RELN-NH2] (Ac-NLRE[S5]DRL[S5]RELN-NH2; staple 5-9) | 13.7 µM | 14.5 µM |  |  | 
CC(=O)N[C@@H](CC(N)=O)C(=O)N[C@@H](CC(C)C)C(=O)N[C@]1(C)CCCCCCC=CCCC[C@@](C)(C(=O)N[C@@H](CCC(=O)O)C(=O)N[C@@H](CC(C)C)C(=O)N[C@@H](CC(N)=O)C(N)=O)NC(=O)[C@H](Cc2c[nH]c3ccccc23)NC(=O)[C@H](CC(C)C)NC(=O)[C@H](CCCNC(=N)N)NC(=O)[C@H](CC(=O)O)NC(=O)[C@H](CC(C)C)NC(=O)[C@H](CCC(=O)O)NC1=O [Peptide 2007, Ac-NLR8ELDRLWS5ELN-NH2] (Ac-NL[R8]ELDRLW[S5]ELN-NH2; staple 3-10) | 73.1 µM | 190 µM | worse binding and inhibitory properties compared to 1907 |  | 
CC(=O)N[C@@H](CC(N)=O)C(=O)N[C@@H](CC(C)C)C(=O)N[C@@H](CO)C(=O)N[C@@H](CCC(=O)O)C(=O)N[C@@H](CC(C)C)C(=O)N[C@@H](CC(=O)O)C(=O)N[C@@H](CCCNC(=N)N)C(=O)N[C@@]1(C)CCCC=CCCC[C@@](C)(C(=O)N[C@@H](CC(N)=O)C(N)=O)NC(=O)[C@H](CCC(=O)O)NC(=O)[C@H](CC(C)C)NC(=O)[C@H](CC(C)C)NC1=O [Peptide 2015] (Ac-NLSELDR[S5]LLE[S5]N-NH2; staple 8-12) |  |  | did not show much activity compared to 1907 | 114 µM | 47.5 µM
CSCC[C@@H]1NC(=O)[C@H](Cc2ccccc2)NC(=O)[C@H](CCCNC(=N)N)NC(=O)[C@H](CC(C)C)NC(=O)[C@H](CCCNC(=N)N)NC(=O)[C@H](C)NC(=O)[C@](C)(NC(=O)[C@H](CCCNC(=N)N)NC(=O)[C@H](CCCNC(=N)N)NC(C)=O)CCCCCCC=CCCC[C@@](C)(C(=O)N[C@@H](CCC(N)=O)C(=O)N[C@@H](Cc2ccccc2)C(=O)N[C@@H](Cc2ccc(O)cc2)C(N)=O)NC1=O [Peptide 1929, Ac-RRR8ARLRFMS5QFY-NH2] (Ac-RR[R8]ARLRFM[S5]QFY-NH2; staple 3-10) | 77.6 µM | > 1250 µM | did not have comparable activity to LD2-derived 1907 |  | 
CC(=O)N[C@@H](CC(N)=O)C(=O)N[C@]1(C)CCCCCCC=CCCC[C@@](C)(C(=O)N[C@@H](CC(C)C)C(=O)N[C@@H](CCC(=O)O)C(=O)N[C@@H](CC(C)C)C(=O)N[C@@H](CC(N)=O)C(N)=O)NC(=O)[C@H](CC(C)C)NC(=O)[C@H](CCCNC(=N)N)NC(=O)[C@H](CC(=O)O)NC(=O)[C@H](CC(C)C)NC(=O)[C@H](CCC(=O)O)NC(=O)[C@H](CO)NC1=O [Peptide 2017, Ac-NR8SELDRLS5LELN-NH2] (Ac-N[R8]SELDRL[S5]LELN-NH2; staple 2-9) | 20.3 µM | 80.6 µM | limited activity compared to 1907 |  | 

Further lines, with some results ahead:

Kd ([2]; read-out: SPR KD) | SMILES | Ki ([1]; read-out: FP Ki) | binding and inhibitory properties (SPR/FP) in words, compared to 1907 [2] | Ki [1] | Kd ([2]; SPR KD)
> 200 µM | CC(C)C[C@@H]1NC(=O)[C@H](CCCNC(=N)N)NC(=O)[C@H](CC(=O)O)NC(=O)[C@H](CC(C)C)NC(=O)[C@](C)(NC(=O)[C@H](CO)NC(=O)[C@H](CC(C)C)NC(=O)[C@@H](N)CC(N)=O)CCCCCCC=CCCC[C@@](C)(C(=O)N[C@@H](CC(C)C)C(=O)N[C@@H](CC(N)=O)C(N)=O)NC(=O)[C@H](CC(N)=O)NC(=O)[C@H](CC(C)C)NC1=O [Peptide 1906, H-NLSR8LDRLLNS5LN-NH2] (H-NLS[R8]LDRLLN[S5]LN-NH2; staple 4-11) | > 1250 µM |  |  | 
> 200 µM | CC(=O)N[C@@H](CC(N)=O)C(=O)N[C@]1(C)CCCC=CCCC[C@@](C)(C(=O)N[C@@H](CC(=O)O)C(=O)N[C@@H](CCCNC(=N)N)C(=O)N[C@@H](CC(C)C)C(=O)N[C@@H](CC(C)C)C(=O)N[C@@H](CC(C)C)C(=O)N[C@@H](CCC(=O)O)C(=O)N[C@@H](CC(C)C)C(=O)N[C@@H](CC(N)=O)C(N)=O)NC(=O)[C@H](CCC(=O)O)NC(=O)[C@H](CO)NC1=O [Peptide 2024] (Ac-N[R5]SE[S5]DRLLLELN-NH2; staple 2-5) | 412 µM | did not show much activity compared to 1907 |  | 
24.8 µM | CC(=O)N[C@@H](CC(N)=O)C(=O)N[C@@H](CC(C)C)C(=O)N[C@]1(C)CCCCCCC=CCCC[C@@](C)(C(=O)N[C@@H](CCC(N)=O)C(=O)N[C@@H](CC(C)C)C(=O)N[C@@H](CC(N)=O)C(N)=O)NC(=O)[C@H](CC(C)C)NC(=O)[C@H](CC(C)C)NC(=O)[C@H](CCCNC(=N)N)NC(=O)[C@H](CC(=O)O)NC(=O)[C@H](CC(C)C)NC(=O)[C@H](CCC(N)=O)NC1=O [Peptide 1910, Ac-NLR8QLDRLLS5QLN-NH2] (Ac-NL[R8]QLDRLL[S5]QLN-NH2; staple 3-10) | 46.8 µM | not as active as 1907 |  | 
6.96 µM | CC(=O)N[C@@H](CC(N)=O)C(=O)N[C@@H](CC(C)C)C(=O)N[C@]1(C)CCCCCCC=CCCC[C@@](C)(C(=O)N[C@@H](CCC(=O)O)C(=O)N[C@@H](CC(C)C)C(=O)N[C@@H](CC(N)=O)C(N)=O)NC(=O)[C@H](CC(C)C)NC(=O)[C@H](CC(C)C)NC(=O)[C@H](CCCNC(=N)N)NC(=O)[C@H](CC(=O)O)NC(=O)[C@H](CC(C)C)NC(=O)[C@H](C)NC1=O [Peptide 2009, Ac-NLR8ALDRLLS5ELN-NH2] (Ac-NL[R8]ALDRLL[S5]ELN-NH2; staple 3-10) | 26.7 µM |  |  | 
911 µM | CC(=O)N[C@@H](CC(N)=O)C(=O)N[C@@H](CC(C)C)C(=O)N[C@@H](CO)C(=O)N[C@@H](CCC(=O)O)C(=O)N[C@]1(C)CCCC=CCCC[C@@](C)(C(=O)N[C@@H](CC(C)C)C(=O)N[C@@H](CC(C)C)C(=O)N[C@@H](CCC(=O)O)C(=O)N[C@@H](CC(C)C)C(=O)N[C@@H](CC(N)=O)C(N)=O)NC(=O)[C@H](CCCNC(=N)N)NC(=O)[C@H](CC(=O)O)NC1=O [Peptide 2022, Ac-NLSER5DRS5LLELN-NH2] (Ac-NLSE[R5]DR[S5]LLELN-NH2; staple 5-8) | 341 µM | did not show much activity compared to 1907 |  | 
